Columns and labels:
FGFR1 = FGFR1 (Homo sapiens, UniProt P11362); test: ELISA kinase assay (FGFR1 enzymatic assay); type: biochemical
Protocol: The effects of compounds on the activities of FGFR1 kinases were determined using enzyme-linked immunosorbent assays (ELISAs) with purified recombinant proteins. Briefly, 20 μg/mL poly (Glu, Tyr)4:1 (Sigma, St. Louis, MO, USA) was pre-coated in 96-well plates as a substrate. A 50-μL aliquot of 10 μmol/L ATP solution diluted in kinase reaction buffer (50 mmol/L HEPES [pH 7.4], 50 mmol/L MgCl2, 0.5 mmol/L MnCl2, 0.2 mmol/L Na3VO4, and 1 mmol/L DTT) was added to each well; 1 μL of various concentrations of compounds diluted in 1% DMSO (v/v) (Sigma) were then added to each reaction well. DMSO (1%, v/v) was used as the negative control. The kinase reaction was initiated by the addition of purified tyrosine kinase proteins diluted in 49 μL of kinase reaction buffer. After incubation for 60 min at 37 °C, the plate was washed three times with phosphate-buffered saline (PBS) containing 0.1% Tween 20 (T-PBS). Anti-phosphotyrosine (PY99) antibody (100 μL; 1:500, diluted in 5 mg/mL BSA T-PBS) was then added. After a 30-min incubation at 37 °C, the plate was washed three times, and 100 μL horseradish peroxidase-conjugated goat anti-mouse IgG (1:2000, diluted in 5 mg/mL BSA T-PBS) was added. The plate was then incubated at 37 °C for 30 min and washed 3 times. A 100-μL aliquot of a solution containing 0.03% H2O2 and 2 mg/mL o-phenylenediamine in 0.1 mol/L citrate buffer (pH 5.5) was added. The reaction was terminated by the addition of 50 μL of 2 mol/L H2SO4 as the color changed, and the plate was analyzed using a multi-well spectrophotometer (SpectraMAX 190, Molecular Devices, Palo Alto, CA, USA) at 490 nm. […] The IC50 values were calculated from the inhibition curves in two separate experiments.

[1] = test system: tumors harboring FGFR signaling aberrations; conditions: phase I trial, patients with tumors harboring FGFR signaling aberrations; cited from earlier work
FGFR3 = test system: FGFR3; design: method as in PMID 21936542; conditions: molecular level; cited from earlier work
FGFR4 = test system: FGFR4; design: method as in PMID 21936542; conditions: molecular level; cited from earlier work
FGFR2 = test system: FGFR2; design: method as in PMID 21936542; conditions: molecular level; cited from earlier work

FGFR1, sequence (P11362 22-822): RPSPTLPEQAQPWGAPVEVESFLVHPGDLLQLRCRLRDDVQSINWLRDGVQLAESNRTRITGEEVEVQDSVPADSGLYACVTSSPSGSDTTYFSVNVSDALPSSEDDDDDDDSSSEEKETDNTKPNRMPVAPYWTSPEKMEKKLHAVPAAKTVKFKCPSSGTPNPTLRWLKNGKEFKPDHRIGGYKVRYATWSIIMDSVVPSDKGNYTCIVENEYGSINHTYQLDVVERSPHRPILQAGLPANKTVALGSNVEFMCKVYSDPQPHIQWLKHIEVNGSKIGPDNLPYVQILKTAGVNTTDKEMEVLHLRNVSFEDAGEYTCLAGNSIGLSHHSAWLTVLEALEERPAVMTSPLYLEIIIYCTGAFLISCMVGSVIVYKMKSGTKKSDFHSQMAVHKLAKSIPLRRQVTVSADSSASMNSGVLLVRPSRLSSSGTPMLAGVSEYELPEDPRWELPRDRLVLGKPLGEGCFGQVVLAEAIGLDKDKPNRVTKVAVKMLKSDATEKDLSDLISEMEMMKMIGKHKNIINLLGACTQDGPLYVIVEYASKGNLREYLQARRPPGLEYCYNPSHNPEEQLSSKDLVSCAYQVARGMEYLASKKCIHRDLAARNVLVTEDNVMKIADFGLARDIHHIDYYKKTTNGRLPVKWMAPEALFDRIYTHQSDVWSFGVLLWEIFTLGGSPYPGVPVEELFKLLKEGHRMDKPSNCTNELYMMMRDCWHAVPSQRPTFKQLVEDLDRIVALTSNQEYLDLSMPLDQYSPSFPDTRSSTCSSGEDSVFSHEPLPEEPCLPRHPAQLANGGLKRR

Compound	Enzyme Inhibition (%) (FGFR1; 0.1 μmol/L compound)	Enzyme Inhibition (%) (FGFR1; 1 μmol/L compound)	on-target activity observed in patients [1]	IC50 (FGFR3) [nM]	IC50 (FGFR4) [nM]	IC50 (FGFR2) [nM]
AZD4547 [reference compound]	93.2	94.3	five of 20	–	–	–
CCN1CCN(c2ccc(Nc3cc(N(C)C(=O)Nc4c(Cl)c(OC)cc(OC)c4Cl)ncn3)cc2)CC1 [NVP-BGJ398, 3-(2,6-dichloro-3,5-dimethoxy-phenyl)-1-{6-[4-(4-ethyl-piperazin-1-yl)-phenylamino]-pyrimidin-4-yl}-1-methyl-urea]	–	–	–	[…]	[…]	1.4

Source: article PMC6273472, “Design, Synthesis and Biological Evaluation of 6-(2,6-Dichloro-3,5-dimethoxyphenyl)-4-substituted-1H-indazoles as Potent Fibroblast Growth Factor Receptor Inhibitors” (Molecules, 2016)
